Laboratory results reported in BindingDB's records for doi:10.1021/acsmedchemlett.0c00015 (The Genomics Institute of The Novartis Research Foundation, 2020).

Assays:
[1] = Inhibition of LCK (unknown origin) transfected in mouse Ba/F3 cells assessed as reduction in cell viability incubated for 48 hrs by brightglo-luciferase reporter gene assay
[2] = Inhibition of TRKB (unknown origin) transfected in mouse Ba/F3 cells assessed as reduction in cell viability incubated for 48 hrs by brightglo-luciferase reporter gene assay
[3] = Inhibition of ROS (unknown origin) transfected in mouse Ba/F3 cells assessed as reduction in cell viability incubated for 48 hrs by brightglo-luciferase reporter gene assay
[4] = Inhibition of RET (unknown origin) transfected in mouse Ba/F3 cells assessed as reduction in cell viability incubated for 48 hrs by brightglo-luciferase reporter gene assay
[5] = Inhibition of FLT3 (unknown origin) transfected in mouse Ba/F3 cells assessed as reduction in cell viability incubated for 48 hrs by brightglo-luciferase reporter gene assay
[6] = Inhibition of FGFR1 (unknown origin) transfected in mouse Ba/F3 cells assessed as reduction in cell viability incubated for 48 hrs by brightglo-luciferase reporter gene assay
[7] = Inhibition of LYN (unknown origin) transfected in mouse Ba/F3 cells assessed as reduction in cell viability incubated for 48 hrs by brightglo-luciferase reporter gene assay
[8] = Inhibition of KIF5B-RET (unknown origin) transfected in mouse Ba/F3 cells assessed as reduction in cell viability incubated for 48 hrs by brightglo-luciferase reporter gene assay
[9] = Inhibition of INSR (unknown origin) transfected in mouse Ba/F3 cells assessed as reduction in cell viability incubated for 48 hrs by brightglo-luciferase reporter gene assay
[10] = Inhibition of FGFR3 (unknown origin) transfected in mouse Ba/F3 cells assessed as reduction in cell viability incubated for 48 hrs by brightglo-luciferase reporter gene assay
[11] = Inhibition of BMX (unknown origin) transfected in mouse Ba/F3 cells assessed as reduction in cell viability incubated for 48 hrs by brightglo-luciferase reporter gene assay
[12] = Inhibition of RON (unknown origin) transfected in mouse Ba/F3 cells assessed as reduction in cell viability incubated for 48 hrs by brightglo-luciferase reporter gene assay
[13] = Inhibition of NPM/ALK (unknown origin) transfected in mouse Ba/F3 cells assessed as reduction in cell viability incubated for 48 hrs by brightglo-luciferase reporter gene assay
[14] = Inhibition of JAK2 (unknown origin) transfected in mouse Ba/F3 cells assessed as reduction in cell viability incubated for 48 hrs by brightglo-luciferase reporter gene assay
[15] = Inhibition of TRKA (unknown origin) transfected in mouse Ba/F3 cells assessed as reduction in cell viability incubated for 48 hrs by brightglo-luciferase reporter gene assay
[16] = Inhibition of FGR (unknown origin) transfected in mouse Ba/F3 cells assessed as reduction in cell viability incubated for 48 hrs by brightglo-luciferase reporter gene assay
[17] = Inhibition of MER (unknown origin) transfected in mouse Ba/F3 cells assessed as reduction in cell viability incubated for 48 hrs by brightglo-luciferase reporter gene assay
[18] = Inhibition of PDGFRbeta (unknown origin) transfected in mouse Ba/F3 cells assessed as reduction in cell viability incubated for 48 hrs by brightglo-luciferase reporter gene assay
[19] = Inhibition of TRKC (unknown origin) transfected in mouse Ba/F3 cells assessed as reduction in cell viability incubated for 48 hrs by brightglo-luciferase reporter gene assay
[20] = Inhibition of TEL/KDR (unknown origin) transfected in mouse Ba/F3 cells assessed as reduction in cell viability incubated for 48 hrs by brightglo-luciferase reporter gene assay
[21] = Inhibition of KIF5B-RET V804M mutant (unknown origin) transfected in mouse Ba/F3 cells assessed as reduction in cell viability incubated for 48 hrs by brightglo-luciferase reporter gene assay
[22] = Inhibition of TYRO3 (unknown origin) transfected in mouse Ba/F3 cells assessed as reduction in cell viability incubated for 48 hrs by brightglo-luciferase reporter gene assay
[23] = Inhibition of MET (unknown origin) transfected in mouse Ba/F3 cells assessed as reduction in cell viability incubated for 48 hrs by brightglo-luciferase reporter gene assay
[24] = Inhibition of PDGFRalpha (unknown origin) transfected in mouse Ba/F3 cells assessed as reduction in cell viability incubated for 48 hrs by brightglo-luciferase reporter gene assay
[25] = Inhibition of TIE1 (unknown origin) transfected in mouse Ba/F3 cells assessed as reduction in cell viability incubated for 48 hrs by brightglo-luciferase reporter gene assay
[26] = Inhibition of BLK (unknown origin) transfected in mouse Ba/F3 cells assessed as reduction in cell viability incubated for 48 hrs by brightglo-luciferase reporter gene assay
[27] = Inhibition of FGFR2 (unknown origin) transfected in mouse Ba/F3 cells assessed as reduction in cell viability incubated for 48 hrs by brightglo-luciferase reporter gene assay
[28] = Inhibition of KDR (unknown origin) transfected in mouse Ba/F3 cells assessed as reduction in cell viability incubated for 48 hrs by brightglo-luciferase reporter gene assay
[29] = Inhibition of SRC (unknown origin) transfected in mouse Ba/F3 cells assessed as reduction in cell viability incubated for 48 hrs by brightglo-luciferase reporter gene assay
[30] = Inhibition of IGF1R (unknown origin) transfected in mouse Ba/F3 cells assessed as reduction in cell viability incubated for 48 hrs by brightglo-luciferase reporter gene assay
[31] = Inhibition of SYK (unknown origin) transfected in mouse Ba/F3 cells assessed as reduction in cell viability incubated for 48 hrs by brightglo-luciferase reporter gene assay
[32] = Inhibition of CCDC6/RET (unknown origin) transfected in human LC2/ad cells assessed as reduction in cell viability incubated for 6 days by CellTiter Glo assay
[33] = Inhibition of FLT1 (unknown origin) transfected in mouse Ba/F3 cells assessed as reduction in cell viability incubated for 48 hrs by brightglo-luciferase reporter gene assay
[34] = Inhibition of FGFR4 (unknown origin) transfected in mouse Ba/F3 cells assessed as reduction in cell viability incubated for 48 hrs by brightglo-luciferase reporter gene assay
[35] = Inhibition of ZAP70 (unknown origin) transfected in mouse Ba/F3 cells assessed as reduction in cell viability incubated for 48 hrs by brightglo-luciferase reporter gene assay
[36] = Inhibition of FMS (unknown origin) transfected in mouse Ba/F3 cells assessed as reduction in cell viability incubated for 48 hrs by brightglo-luciferase reporter gene assay
[37] = Inhibition of KIT (unknown origin) transfected in mouse Ba/F3 cells assessed as reduction in cell viability incubated for 48 hrs by brightglo-luciferase reporter gene assay

SMILES: COc1ccc(-c2cnn3c(N)c(-c4ccccc4)c(OC4CCN(C)CC4)nc23)cc1OC
- IC50 [1]: 110 nM
- IC50 [2]: > 11000 nM
- IC50 [3]: > 11000 nM
- IC50 [4]: 170 nM
- IC50 [5]: 1700 nM
- IC50 [6]: > 5600 nM
- IC50 [7]: 410 nM
- IC50 [8]: 37 nM
- IC50 [9]: > 11000 nM
- IC50 [10]: > 9800 nM
- IC50 [11]: > 11000 nM
- IC50 [12]: > 11000 nM
- IC50 [13]: 8300 nM
- IC50 [14]: > 1300 nM
- IC50 [15]: > 11000 nM
- IC50 [16]: 98 nM
- IC50 [17]: > 11000 nM
- IC50 [18]: 100 nM
- IC50 [19]: > 11000 nM
- IC50 [20]: 1400 nM
- IC50 [21]: 1800 nM
- IC50 [22]: > 11000 nM
- IC50 [23]: > 11000 nM
- IC50 [24]: 93 nM
- IC50 [25]: > 11000 nM
- IC50 [26]: 520 nM
- IC50 [27]: 3700 nM
- IC50 [28]: > 11000 nM
- IC50 [29]: 120 nM
- IC50 [30]: > 11000 nM
- IC50 [31]: 7600 nM
- IC50 [32]: 95 nM
- IC50 [33]: > 11000 nM
- IC50 [34]: > 11000 nM
- IC50 [35]: > 11000 nM
- IC50 [36]: 400 nM

SMILES: COC(=O)Nc1ccc(-c2c(OC3CCN(C)CC3)nc3c(-c4ccc(OC)c(OC)c4)cnn3c2N)cc1
- IC50 [37]: 20 nM
- IC50 [1]: 2400 nM
- IC50 [2]: 2100 nM
- IC50 [3]: 5500 nM
- IC50 [4]: 6 nM
- IC50 [5]: 3400 nM
- IC50 [6]: 10 nM
- IC50 [7]: 67 nM
- IC50 [8]: 6 nM
- IC50 [9]: > 9100 nM
- IC50 [10]: 430 nM
- IC50 [11]: > 7400 nM
- IC50 [12]: 6000 nM
- IC50 [13]: 1200 nM
- IC50 [14]: 84 nM
- IC50 [15]: 2800 nM
- IC50 [16]: 440 nM
- IC50 [17]: 86 nM
- IC50 [18]: 22 nM
- IC50 [19]: 1400 nM
- IC50 [21]: 19 nM
- IC50 [22]: 3700 nM
- IC50 [23]: > 11000 nM
- IC50 [24]: 17 nM
- IC50 [25]: > 10000 nM
- IC50 [26]: 230 nM
- IC50 [27]: 8 nM
- IC50 [28]: 26 nM
- IC50 [30]: > 7500 nM
- IC50 [31]: 1400 nM
- IC50 [33]: 3000 nM
- IC50 [34]: 35 nM
- IC50 [35]: 9100 nM
- IC50 [36]: 82 nM

SMILES: COc1ccc(-c2cnn3c(N)c(-c4nccs4)c(OC4CCN(C)CC4)nc23)cc1OC
- IC50 [37]: 1600 nM
- IC50 [1]: 1200 nM
- IC50 [2]: 770 nM
- IC50 [3]: > 11000 nM
- IC50 [4]: 210 nM
- IC50 [5]: > 11000 nM
- IC50 [6]: 3100 nM
- IC50 [7]: 1500 nM
- IC50 [8]: 120 nM
- IC50 [9]: > 10000 nM
- IC50 [10]: 4900 nM
- IC50 [11]: > 11000 nM
- IC50 [12]: > 11000 nM
- IC50 [13]: > 11000 nM
- IC50 [14]: 3800 nM
- IC50 [15]: > 11000 nM
- IC50 [16]: 4100 nM
- IC50 [17]: > 8700 nM
- IC50 [18]: 41 nM
- IC50 [19]: 500 nM
- IC50 [21]: 610 nM
- IC50 [22]: > 11000 nM
- IC50 [23]: > 11000 nM
- IC50 [24]: 9 nM
- IC50 [25]: > 11000 nM
- IC50 [26]: 8200 nM
- IC50 [27]: 3000 nM
- IC50 [28]: 240 nM
- IC50 [29]: 2400 nM
- IC50 [30]: 8700 nM
- IC50 [31]: > 11000 nM
- IC50 [33]: > 11000 nM
- IC50 [34]: 4400 nM
- IC50 [35]: > 11000 nM
- IC50 [36]: 4300 nM

SMILES: COc1ccc(-c2cnn3c(N)c(-c4ccccc4)c(OC4CCNCC4)nc23)cc1OC
- IC50 [8]: 79 nM
- IC50 [20]: 3600 nM
- IC50 [32]: 160 nM

SMILES: COc1ccc(-c2cnn3c(N)c(-c4ccccc4)c(OCCCN(C)C)nc23)cc1OC
- IC50 [8]: 70 nM
- IC50 [20]: 3000 nM

SMILES: COc1ccc(-c2cnn3c(N)c(-c4ccccc4)c(NC4CCN(C)CC4)nc23)cc1OC
- IC50 [8]: 31 nM
- IC50 [20]: 3100 nM
- IC50 [32]: 56 nM

SMILES: COc1ccc(-c2cnn3c(N)c(-c4ccccc4)c(NCCCN(C)C)nc23)cc1OC
- IC50 [8]: 56 nM
- IC50 [20]: > 7900 nM

SMILES: COc1ccc(-c2cnn3c(N)c(-c4ccccc4)c(NC4CC(C)(C)N(C)C(C)(C)C4)nc23)cc1OC
- IC50 [8]: 1.7 nM
- IC50 [20]: 990 nM
- IC50 [32]: 5.3 nM

SMILES: CN1C(C)(C)CC(Nc2nc3c(-c4ccc(C(=O)N5C[C@@H]6C[C@H]5CO6)cc4)cnn3c(N)c2-c2ccccc2)CC1(C)C
- IC50 [8]: 5.4 nM
- IC50 [20]: 1300 nM
- IC50 [32]: 16 nM

SMILES: COC(=O)N1CCN(C(=O)c2ccc(-c3cnn4c(N)c(-c5ccccc5)c(NC5CC(C)(C)N(C)C(C)(C)C5)nc34)cc2)CC1
- IC50 [8]: 3.3 nM
- IC50 [20]: 890 nM
- IC50 [32]: 15 nM

SMILES: CN1C(C)(C)CC(Nc2nc3c(-c4ccc(C(=O)N5CCN(S(C)(=O)=O)CC5)cc4)cnn3c(N)c2-c2ccccc2)CC1(C)C
- IC50 [8]: 6.3 nM
- IC50 [20]: 1100 nM
- IC50 [32]: 6.2 nM
